Data as given in patent US11447449B2, “Inhibitors of indoleamine 2,3-dioxygenase and methods of their use” (BRISTOL-MYERS SQUIBB COMPANY, priority 2018, dated 2022).
In brackets after ≈: the same amount, converted by molar mass. Read-outs that look alike come from different tables or passages of the source.

What was measured:
[1] = Thermodynamic equilibrium aqueous solubility; assay type: physicochemical; details: thermodynamic from solid, 18-24 hours at room temperature, read-out: Solubility (μg/mL) pH 1.0, 4.0, 6.5, 7.4 buffers
Procedure: Thermodynamic Equilibrium Aqueous Solubility Evaluation
The calibration standard is prepared by accurately weighing 0.3-0.7 mg of sample into 5 ml volumetric flask and then dissolved in pure methanol. If the standard material is not fully soluble in methanol, other solvents such as DMSO or mixed solvent systems can used.
The calibration standard is typically prepared fresh, before the start of the assay. Note the calibration standard must be fully dissolved. A single point calibration curve is used to determine the concentration of the final saturated solution.
The saturated solution is prepared by adding 1.0 ml of the appropriate aqueous solvent to the remaining portion/portions of material (˜1 mg/l ml) into the 1 dram submission vial. The solution is sonicated and vortexed for ˜30 seconds. The sample solution is placed on an orbiter that continually agitates the sample solutions for 18-24 hours at room temperature. The saturated solution is then transferred to a 1.5 ml eppendorf tube and centrifuged for ˜2 min. at 10000 rpms. The supernatant from the saturated solution is filtered, using a 0.45 μm PTFE syringe filter, into a 1.5 mL glass HPLC.
The standards and sample are analyzed by HPLC using either UV/Vis diode array or variable wavelength detection. Typical quantitation wavelengths are 210 or 254 nm; detection wavelength can be individually customized to optimize sensitivity. In addition to UV detection, mass spectrometry detection is recommended in order to confirm the Mass of the peak of interest.
Dilutions of saturated aqueous test solutions are performed if HPLC-UV peak is beyond the linear portion of the standard calibration curve. Typical dilutions include 100 μl/900 μl (×10) or 500 μl/500 μl (2×), as required.
HPLC grade solvents are employed.

[2] = biological target: T1, indoleamine 2,3-dioxygenase (IDO) (Homo sapiens, UniProt P14902); test: HeLa cell-based indoleamine 2,3-dioxygenase (IDO) assay, kynurenine production; details: HeLa cells, IFNγ 25 ng/mL, 48 hour incubation
T1 construct: endogenous in cells; host or cells: HeLa (ATCC CCL-2), stimulated with IFN-gamma at 25 ng/mL
T1 sequence (P14902 whole entry): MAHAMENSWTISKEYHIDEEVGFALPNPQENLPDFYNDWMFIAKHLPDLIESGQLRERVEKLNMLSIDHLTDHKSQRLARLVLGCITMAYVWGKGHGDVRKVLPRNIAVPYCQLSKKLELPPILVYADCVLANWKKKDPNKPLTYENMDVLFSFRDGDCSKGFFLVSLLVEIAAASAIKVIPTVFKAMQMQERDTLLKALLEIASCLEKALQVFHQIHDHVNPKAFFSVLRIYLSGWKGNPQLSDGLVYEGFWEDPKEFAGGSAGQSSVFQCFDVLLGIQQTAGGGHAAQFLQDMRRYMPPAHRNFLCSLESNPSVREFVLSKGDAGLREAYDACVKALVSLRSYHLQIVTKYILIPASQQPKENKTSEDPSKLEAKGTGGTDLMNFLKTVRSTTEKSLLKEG
Procedure: Assessment of inhibitor activity in HeLa cell-based indoleamine 2,3-dioxygenase (IDO) assay:
HeLa (ATCC® CCL-2) cells were obtained from the ATCC® and cultured in Dulbecco's Modified Eagle Medium supplemented with 4.5 g/L glucose, […] (#10-013-CV, Corning), 2 mM L-alanyl-L-glutamine dipeptide (#35050-061, Gibco), 100U/mL penicillin, 100 μg/mL streptomycin (#SV30010, HyClone) and 10% fetal bovine serum (#SH30071.03 HyClone). Cells were maintained in a humidified incubator at 37° C. in 5% CO2.
IDO activity was assessed as a function of kynurenine production as follows: HeLa cells were seeded in a 96-well culture plate at a density of 5,000 cells/well and allowed to equilibrate overnight. After 24 hours, the media was aspirated and replaced with media containing IFNγ (#285-IF/CF, R&D Systems) at a final concentration of 25 ng/mL. A serial dilution of each test compound was added to the cells in a total volume of 200 μL of culture medium. […] Kynurenine concentrations were determined by measuring absorbance at 480 nm and calibrating against an L-kynurenine (#K8625, Sigma-Aldrich) standard curve using a SPECTRAMAX® M2e microplate reader (Molecular Devices). The percentage activity at each inhibitor concentration was determined and IC50 values assessed using nonlinear regression.

[3] = biological target: T2, human IDO1 (Homo sapiens, UniProt P14902); test: Human IDO1/HEK293 cell IDO inhibition assay; assay type: cell-based; details: human IDO1/HEK293 cells, 20 hours; read-out: IDO1 HEK Human IC50
T2 construct: expressed in transfected cells
T2 sequence (P14902 whole entry): as above
Procedure: HEK293 cells were transfected with a pCDNA-based mammalian expression vector harboring human IDO1 cDNA (NM 002164.2) by electroporation. They were cultured in medium (DMEM with 10% FBS) containing 1 mg/ml G418 for two weeks. Clones of HEK293 cells that stably expressed human IDO1 protein were selected and expanded for IDO inhibition assay.
The human IDO1/HEK293 cells were seeded at 10,000 cells per 50 μL per well with RPMI/phenol red free media contains 10% FBS in a 384-well black wall clear bottom tissue culture plate (Matrix Technologies LLC) 100 nL of certain concentration of compound was then added to each well using ECHO liquid handling systems. The cells were incubated for 20 hours in 37° C. incubator with 5% CO2.
The compound treatments were stopped by adding trichloroacetic acid (Sigma-Aldrich) to a final concentration at 0.2%. The cell plate was further incubated at 50° C. for 30 minute. The equal volume supernatant (20 μL) and 0.2% (w/v) Ehrlich reagent (4-dimethylaminobenzaldehyde, Sigma-Aldrich) in glacial acetic acid were mixed in a new clear bottom 384-well plate. This plate was then incubated at room temperature for 30 minute. The absorbance at 490 nm was measured on Envision plate reader. […]

[4] = aqueous buffer pH 1.0, simulated gastric fluid, pH 1.0 buffer
[5] = aqueous buffer pH 7.4, aqueous buffer, pH 7.4 buffer
[6] = aqueous buffer pH 4.0, aqueous buffer, pH 4.0 buffer
[7] = aqueous buffer pH 6.5, aqueous buffer, pH 6.5 buffer

| solubility [1, 4] [µg/mL] | solubility [1, 5] [µg/mL] | IC50 [2] [nM] | IC50 [3] [nM] | SMILES | solubility [1, 6] [µg/mL] | solubility [1, 7] [µg/mL] |
| --- | --- | --- | --- | --- | --- | --- |
| 630 (≈ 1390 µM) | 1 (≈ 2.2 µM) | 4.1 | 3.1 | CC[C@@H](CC(=O)O)c1ccc(N(CC(C)C)CC(C)C)c(NC(=O)Nc2ccc(C)cc2)c1 [Example 1E, (S)-3-(4-(diisobutylamino)-3-(3-(p-tolyl)ureido)phenyl)pentanoic Acid] |  |  |
| 24 (≈ 36.9 µM) | 158 (≈ 243 µM) |  |  | CC[C@@H](CC(=O)OCOC(=O)CCCOP(=O)(O)O)c1ccc(N(CC(C)C)CC(C)C)c(NC(=O)Nc2ccc(C)cc2)c1 [Example 4, (S)-((4-(Phosphonooxy)butanoyl)oxy)methyl 3-(4-(diisobutylamino)-3-(3-(p-tolyl)ureido) Phenyl) Pentanoate] | > 500 | > 500 |
| 15 (≈ 22.5 µM) | 16 (≈ 24 µM) |  |  | CC[C@@H](CC(=O)OCOC(=O)OCC(C)OP(=O)(O)O)c1ccc(N(CC(C)C)CC(C)C)c(NC(=O)Nc2ccc(C)cc2)c1 (stereo partly drawn) [Example 22, (3S)-(((2-(Phosphonooxy)propoxy)carbonyl)oxy)methyl 3-(4-(diisobutylamino)-3-(3-(p-tolyl)ureido)phenyl)pentanoate] | > 500 | 22 (≈ 33 µM) |

| SMILES | solubility [1, 4] [µg/mL] | solubility [1, 5] [µg/mL] | IC50 [2] [nM] | IC50 [3] [nM] | solubility [1, 6] [µg/mL] | solubility [1, 7] [µg/mL] |
| --- | --- | --- | --- | --- | --- | --- |
| CCOP(=O)(O)OCOC(=O)C[C@H](CC)c1ccc(N(CC(C)C)CC(C)C)c(NC(=O)Nc2ccc(C)cc2)c1 [Example 9, (3S)-((Ethoxy(hydroxy)phosphoryl)oxy)methyl 3-(4-(diisobutylamino)-3-(3-(p-tolyl)ureido)phenyl)pentanoate] | 215 (≈ 363 µM) | > 2000 |  |  | > 1100 | > 2000 |
| CC[C@@H](CC(=O)OC(C)OC(=O)N(C)c1ncccc1COP(=O)(O)O)c1ccc(N(CC(C)C)CC(C)C)c(NC(=O)Nc2ccc(C)cc2)c1 (stereo partly drawn) [Example 20, (3S)-1-((Methyl(3-((phosphonooxy)methyl)pyridin-2-yl)carbamoyl)oxy)ethyl 3-(4-(diisobutylamino)-3-(3-(p-tolyl)ureido)phenyl)pentanoate] | 35 (≈ 47.2 µM) | > 500 |  |  | > 500 | > 500 |
